Source: patent US9540299B2, “MTOR-independent activator of TFEB for autophagy enhancement and uses thereof” (Hong Kong Baptist University, priority 2015, dated 2017)

molecular target: T1, 3×Flag-TFEB (Homo sapiens, UniProt P19484); assay: Nuclear translocation of Flag-TFEB in Hela cells stably expressing 3×Flag-TFEB (immunostaining, western blot); assay type: cell-based; settings: analogs 1 μM, curcumin 10 μM, 12 h, Torin 1 1 μM, 2 h
T1 construct: expressed in transfected cells
T1 sequence (P19484 1-476): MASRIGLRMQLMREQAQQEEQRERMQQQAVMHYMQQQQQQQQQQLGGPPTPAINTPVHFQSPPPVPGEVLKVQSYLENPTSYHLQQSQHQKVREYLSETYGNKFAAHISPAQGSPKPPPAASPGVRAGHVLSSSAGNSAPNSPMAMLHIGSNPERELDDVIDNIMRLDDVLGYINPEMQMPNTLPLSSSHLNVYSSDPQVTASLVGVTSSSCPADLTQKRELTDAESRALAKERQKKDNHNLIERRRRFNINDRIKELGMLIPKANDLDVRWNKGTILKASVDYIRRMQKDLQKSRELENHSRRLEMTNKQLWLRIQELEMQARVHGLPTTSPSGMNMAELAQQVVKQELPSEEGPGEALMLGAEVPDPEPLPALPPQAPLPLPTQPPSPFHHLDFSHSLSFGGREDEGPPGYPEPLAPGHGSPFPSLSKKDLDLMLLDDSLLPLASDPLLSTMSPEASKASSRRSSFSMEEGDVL
Experimental: Cells were treated with curcumin (Cur, 10 μM), A2, B3 and C1 (1 μM) for 12 h. […] Data is quantified by ImageJ software and is presented as mean±SD of three replicates for each treatment conditions. At least 1000 cells are analyzed in each treatment group. *p<0.05 vs. the control (0.1% DMSO). FIG. 4C is a western blot showing the expression of endogenous TFEB. […] Data are presented as the mean±SD from three independent experiments. *p<0.05 vs. the control (0.1% DMSO). FIG. 4E is fluorescence images showing expression of 3×Flag-TFEB in Hela cells having treated with Cur (10 μM), A2, B3 and C1 (1 μM) for 12 h. Torin 1 (1 μM) treatment for 2 h is used as a positive control. Cells were fixed and stained with anti-Flag antibody. […] FIG. 4G is the western blot showing the expression of Flag-tagged TFEB in the cytosolic (Cyt.) and nuclear (Nuc.) fractions. ACTB and H3F3A (H3 histone, family 3A) are used as loading control of cytoplasmic and nuclear fraction, respectively. FIG. 4H is showing the relative intensity of TFEB in the cytosolic and nuclear fractions. Data are presented as the mean±SD from three independent experiments. *p<0.05 vs. the control (0.1% DMSO).
HeLa cells stably expressing 3×Flag-TFEB are treated with curcumin analogs E2, E3 and E4 (1 μM) for 12 hours. Torin 1 (1 μM) treatment for 2 hours is used as a positive control. Cells are fixed and stained with anti-Flag antibody (red) and DAPI (blue) (FIG. 18A). TFEB translocate into nucleus are quantified (FIG. 18B). Quantification data are presented as mean±SD of three replicates in a representative experiment. At least 500 cells are analyzed in each treatment group.
HeLa cells stably expressing 3×Flag-TFEB are treated with curcumin analogs E2, E3 and E4 (1 μM) for 12 hours. Torin 1 (1 μM) treatment for 2 hours is used as a positive control. The expression of TFEB in the cytosolic (Cyt.) and nuclear (Nuc.) fractions are determined by western blotting (FIG. 19A) and quantified (FIG. 19B). TUBB (β-tubulin) and H3F3A (H3 histone, family 3A) are used as loading control of cytoplasmic and nuclear fraction respectively. Quantification data are presented as the mean±SD from three independent experiments. *p<0.05 vs. the control (0.1% DMSO).
N2a, Hela and Hela cells stably expressing 3×-Flag-TFEB are cultured in DMEM supplemented with 10% FBS. SH-SY5Y cells are cultured in DMEM/F12 supplemented with 10% FBS. For drug treatment, the full medium is replaced by fresh Opti-MEM I and then the compounds (in 0.1% DMSO) are added to the cells and incubated for 12 h. Inducible PC12 cells overexpressing SNCA (WT and A53T) (a kind gift from Prof. David C. Rubinsztein at Cambridge University) are grown in DMEM supplemented with 10% horse serum, 5% FBS, 50 μg/ml G418, and 150 μg/ml hygromycin B at 37° C., 10% CO2. Cells are treated with 2 μg/ml doxycycline (Dox) for 24 h to induce SNCA expression. The full medium is changed to Opti-MEM I containing the testing compounds for another 48 h.
Cells are lysed on ice in 1× Lysis Buffer (9803, Life Technologies) with complete protease inhibitor mixture (04693124001, Roche Applied Science). Animal tissues are homogenized in nine volumes of ice-cold PBS supplemented with protease inhibitors. Cytosolic and nuclear fractions are isolated using protocols similar to those described previously. Anti-Flag or TFEB antibody is added to the whole cell lysates and Dynabeads® Protein G (10003D, Life Technologies) is used for immunoprecipitation. Proteins are separated by 10-15% SDS-PAGE, transferred, and blotted with the antibodies described. The blots are then incubated with secondary antibodies or the Clean-Blot IP Detection Reagent (21230, Thermo Scientific) at room temperature for 1 h. The protein signals are detected by ECL kit (32106, Pierce) and quantified using ImageJ software.
Cells are seeded on coverslips placed in 24-well plates. […]

| SMILES | nuclear translocation of Flag-TFEB |
| --- | --- |
| O=C(/C=C/c1cccc(C(F)(F)F)c1)/C=C/c1cccc(C(F)(F)F)c1 [A2, 1,5-bis(3-(trifluoromethyl)phenyl)penta-1,4-dien-3-one] | no effects |
| O=C(/C=C/c1ccc(O)cc1)/C=C/c1ccc(O)cc1 [B3, 1,5-bis(4-hydroxyphenyl)penta-1,4-dien-3-one] | no effects |
| COc1ccccc1/C=C/C(=O)/C=C/c1ccccc1OC [C1, 1,5-bis(2-methoxyphenyl)penta-1,4-dien-3-one] | significantly promotes |
| O=C(/C=C/c1ccccc1Cl)/C=C/c1ccccc1Cl [E2] | significantly promote |
| O=C(/C=C/c1ccccc1Br)/C=C/c1ccccc1Br [E3] | significantly promote |
| O=C(/C=C/c1ccccc1I)/C=C/c1ccccc1I [E4] | significantly promote |
| COc1cc(/C=C/C(=O)CC(=O)/C=C/c2ccc(O)c(OC)c2)ccc1O [curcumin, Curcumin, reference compound] | no effects |
